The numbers were not newly measured in patent US9884040B2, “Desethylamiodarone for use in cancer treatment” (PÉCSI TUDOMÁNYEGYETEM, priority 2015, dated 2018), which cites them from elsewhere.

A value given as a limit tells only on which side of the number the result lay.

For the series the following is noted: in vivo; cited from earlier work.

`CCCCc1oc2ccccc2c1C(=O)c1cc(I)c(OCCN(CC)CC)c(I)c1` [amiodarone]: the Recommended therapeutic range was less than 5.7 µM.
